Data reported in patent publication US20240315993A1, “ANTIPARASITIC COMPOUNDS” (Intervet Inc., priority 2021, published 2024).

How the values were obtained:
[1] = system: Fly larvae I (Lucilia cuprina); assay: Fly larvae contact/feeding assay; conditions: 48 h, read-out: Inhibition of fly larvae development
Experimental: Fly larvae I (Lucilia cuprina) were grown in medium spiked with declining concentrations of a test compound (dissolved in a DMSO-emulsifier-deionized water mixture). Inhibition of fly larvae development (%) was assessed after approximately 48 hours of continuous exposure. The vitality of used parasites was confirmed in negative control groups (i.e., an untreated control and a solvent control).

[2] = system: Copepodids (juvenile sea lice stage of Lepeophtheirus salmonis); assay: Juvenile sea lice contact assay; conditions: Lepeophtheirus salmonis, ~24 h, read-out: Sea lice inhibition (% of dead+damaged copepodids); for inhibition at 0.01 µM: 10 nM in seawater
Experimental: Copepodids (juvenile sea lice stage of Lepeophtheirus salmonis) were exposed to seawater spiked with declining concentrations of a test compound (dissolved in a DMSO sea-water mixture). Sea lice inhibition (% of dead+damaged copepodids) was assessed after approximately 24 hours of continuous exposure. The vitality of used parasites was confirmed in a negative (solvent) control group.

[3] = system: bed bugs (Cimex lectularius); assay: Guinea pig - efficacy against bed bug; assay type: in vivo
Outline: (§1)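 Guinea pigs given 5 mg/kg test compound orally (gavage) or s.c. in 10% DMF/emulsifier plus 90% water for injection, with local co-infestations of Ornithodoros moubata juveniles and Cimex lectularius at several post-treatment times. Engorged parasites scored dead/damaged about 24 h after collection; % inhibition versus pretreatment baseline by modified Schneider-Orelli formula.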

[4] = system: juvenile soft ticks (Ornithodoros moubata); assay: Guinea pig - efficacy against argaside tick; assay type: in vivo
Outline: as §1

[5] = system: Rhipicephalus microplus tick larvae; assay: Tick larvae contact assay; conditions: ~3 min immersion, assessed ~24 h after, read-out: Tick inhibition (% of damage+dead ticks)
Experimental: Tick larvae (Rhipicephalus microplus) were immersed for approximately 3 minutes in declining concentrations of a test compound (dissolved in a DMSO-emulsifier-deionized water mixture). Tick inhibition (% of damage+dead ticks per test concentration) was assessed approximately 24 hours after contact exposure. The vitality of used parasites was confirmed in negative control groups (i.e. an untreated control and a solvent control).

[6] = system: Lepeophtheirus salmonis; assay: Salmon - in vivo efficacy against sea lice using gavage administration; conditions: po, 168 h, read-out: therapeutic efficacy against (pre-)adult sea lice (% reduction vs control), salmon, 5 mg/kg once by gavage, day -28 infestation, counted day 7
[7] = system: Adult fleas (Ctenocephalides felis); assay: Flea feeding assay; conditions: 1 ppm in blood, ~48 h membrane feeding, read-out: flea inhibition (% of dead+damaged fleas)
Experimental: Adult fleas (Ctenocephalides felis) of defined age were fed on artificial membranes with blood spiked with declining concentrations of a test compound (dissolved in a DMSO-emulsifier-blood mixture). After approximately 48 hours of continuous feeding, flea inhibition (i.e., % of dead+damaged fleas per test concentration) was assessed. The vitality of used parasites was confirmed in negative control groups (i.e., an untreated control and a solvent control).

[8] = system: Lepeophtheirus salmonis; assay: Salmon - in vivo efficacy against sea lice using gavage administration; conditions: 5 mg/kg once by gavage, day -3 infestation, counted around day 28
Experimental: Salmon (Salmo solar) were treated once orally by gavage at a dose of 5 mg/kg bodyweight per fish (Day 0). As formulation DMSO 5%/fish oil 95% was used. Salmon of the negative control group received only the excipients of the formulation.
The fish were infested with Lepeophtheirus salmonis copepodids twice before treatment (i.e., around day −28 and day −3) and once after treatment (i.e., day 17).
Around day 28 (end of animal phase), fish were euthanized, and lice on each fish were classified ((pre-)adult or juvenile stage) and counted. […] Efficacy is expressed as a % reduction of sea lice in treated groups versus a control group, using the Abbott's formula.

[9] = system: Mobile stages of sea lice (pre-adults, adults of Lepeophtheirus salmonis); assay: Adult sea lice contact assay; conditions: pre-adults/adults, assessed after ~1 and 24 h, read-out: EC50 (sea lice inhibition, dead+damaged)
Experimental: Mobile stages of sea lice (i.e., pre-adults, adults of Lepeophtheirus salmonis) were exposed to seawater spiked with declining concentrations of a test compound (dissolved in a PEG sea-water mixture). Sea lice inhibition (% of dead+damaged sea lice) was assessed after approximately 1 and 24 hours of continuous exposure in comparison to a negative (solvent) control group.

[10] = 5 mg/kg subcutaneous, after 7 days
[11] = 5 mg/kg subcutaneous, after 10 days
[12] = 5 mg/kg subcutaneous, after 14 days
[13] = 5 mg/kg subcutaneous, after 17 days
[14] = 5 mg/kg, at least until Day 10, both administration routes (oral, subcutaneous)

CN(C(=O)c1cc(NC(=O)[C@H]2[C@H](c3cc(Cl)cc(Cl)c3)C2(Cl)Cl)ccc1Cl)c1ccc(F)cc1 [Compound 51]
80%: inhibition at 100 ppm [1] | inhibition at 49 µM [5] | inhibition at 388 µM [5] | inhibition at 100 ppm [5]
activity: activity against bed bugs (≥80% inhibition, killed+damaged) ([3]; 5 mg/kg oral, after 7 days) | activity against bed bugs (≥80% inhibition, killed+damaged) [3, 10] | activity against bed bugs (≥80% inhibition, killed+damaged) [3, 11] | activity against bed bugs (≥80% inhibition, killed+damaged) [3, 12] | activity against bed bugs (≥80% inhibition, killed+damaged) [3, 13] | activity against tick nymphs (≥80% inhibition, killed+damaged) ([4]; 5 mg/kg oral, after 7 days) | activity against tick nymphs (≥80% inhibition, killed+damaged) [4, 10] | activity against tick nymphs (≥80% inhibition, killed+damaged) [4, 11] | activity against tick nymphs (≥80% inhibition, killed+damaged) [4, 12] | activity against tick nymphs (≥80% inhibition, killed+damaged) [4, 13]
longer duration of efficacy: duration of efficacy, subcutaneous compared with oral administration ([4]; 5 mg/kg, ticks and bed bugs)
≥ 80%: inhibition at 0.1 µM ([2]; 100 nM in seawater) | inhibition at 25 µM ([5]; 25 μM)
immediate activity: activity against bed bugs (≥80% inhibition, killed+damaged) ([3]; 5 mg/kg oral, Day 0) | activity against bed bugs (≥80% inhibition, killed+damaged) ([3]; 5 mg/kg subcutaneous, Day 0) | activity against tick nymphs (≥80% inhibition, killed+damaged) ([4]; 5 mg/kg oral, Day 0) | activity against tick nymphs (≥80% inhibition, killed+damaged) ([4]; 5 mg/kg subcutaneous, Day 0)

O=C(Nc1ncc(F)cc1F)c1cc(NC(=O)[C@H]2[C@H](c3ccc(Cl)c(Cl)c3)C2(Cl)Cl)ccc1Cl [Compound 86]
100%: inhibition at 0.01 µM [2] | effective to control bed bugs [3, 14] | effective to control ticks [4, 14] | inhibition in vivo at 5 mg/kg [6] | therapeutic efficacy against juvenile sea lice (% reduction vs control) [8]
≤ 0.01 µM: EC50 [9]
activity: activity against bed bugs (≥80% inhibition, killed+damaged) ([3]; 5 mg/kg oral, after 7 days) | activity against bed bugs (≥80% inhibition, killed+damaged) ([3]; 5 mg/kg oral, after 10 days) | activity against bed bugs (≥80% inhibition, killed+damaged) [3, 10] | activity against bed bugs (≥80% inhibition, killed+damaged) [3, 11] | activity against tick nymphs (≥80% inhibition, killed+damaged) ([4]; 5 mg/kg oral, after 7 days) | activity against tick nymphs (≥80% inhibition, killed+damaged) ([4]; 5 mg/kg oral, after 10 days) | activity against tick nymphs (≥80% inhibition, killed+damaged) [4, 10] | activity against tick nymphs (≥80% inhibition, killed+damaged) [4, 11]
immediate activity: activity against bed bugs (≥80% inhibition, killed+damaged) ([3]; 5 mg/kg oral, Day 0) | activity against bed bugs (≥80% inhibition, killed+damaged) ([3]; 5 mg/kg subcutaneous, Day 0) | activity against tick nymphs (≥80% inhibition, killed+damaged) ([4]; 5 mg/kg oral, Day 0) | activity against tick nymphs (≥80% inhibition, killed+damaged) ([4]; 5 mg/kg subcutaneous, Day 0)
80%: inhibition at 100 ppm [1] | inhibition at 1 ppm [7] | inhibition at 100 ppm [5]

O=C(Nc1ncc(F)cc1F)c1cc(NC(=O)[C@H]2[C@H](c3ccc(F)c(Cl)c3)C2(Cl)Cl)ccc1Cl [Compound 89]
immediate activity: activity against bed bugs (≥80% inhibition, killed+damaged) ([3]; 5 mg/kg oral, Day 0) | activity against bed bugs (≥80% inhibition, killed+damaged) ([3]; 5 mg/kg subcutaneous, Day 0) | activity against tick nymphs (≥80% inhibition, killed+damaged) ([4]; 5 mg/kg oral, Day 0) | activity against tick nymphs (≥80% inhibition, killed+damaged) ([4]; 5 mg/kg subcutaneous, Day 0)
100%: inhibition at 0.01 µM [2] | inhibition in vivo at 5 mg/kg [6] | therapeutic efficacy against juvenile sea lice (% reduction vs control) [8]
≤ 0.01 µM: EC50 [9]
80%: inhibition at 1 ppm [7] | inhibition at 49 µM [5] | inhibition at 388 µM [5] | inhibition at 100 ppm [5]
